ChEMBL document CHEMBL1126473, “Benzolactams as non-peptide cholecystokinin receptor ligands” (Bioorg Med Chem Lett, 1993)

Assays:
[1] = biological target: T1, Cholecystokinin receptor type A (Rattus norvegicus, UniProt P30551); experiment: Ability to inhibit the binding of [125I]CCK-8 to Cholecystokinin type A receptor in rat pancreas.
T1 sequence (P30551 whole entry): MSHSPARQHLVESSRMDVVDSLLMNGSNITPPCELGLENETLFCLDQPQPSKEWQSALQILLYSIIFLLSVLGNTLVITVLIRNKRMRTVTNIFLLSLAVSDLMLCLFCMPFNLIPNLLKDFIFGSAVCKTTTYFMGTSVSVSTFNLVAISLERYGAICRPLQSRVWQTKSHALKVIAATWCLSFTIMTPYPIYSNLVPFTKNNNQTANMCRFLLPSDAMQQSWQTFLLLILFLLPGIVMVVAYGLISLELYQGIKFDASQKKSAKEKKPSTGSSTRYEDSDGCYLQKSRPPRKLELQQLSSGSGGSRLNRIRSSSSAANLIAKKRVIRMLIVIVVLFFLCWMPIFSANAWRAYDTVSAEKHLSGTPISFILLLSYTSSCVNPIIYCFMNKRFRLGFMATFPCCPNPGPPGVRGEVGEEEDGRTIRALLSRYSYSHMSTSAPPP

[2] = Ability to inhibit the binding of [125I]CCK-8 to Cholecystokinin type B receptor in guinea pig cortex.
[3] = Ability to inhibit the binding of [125I]-gastrin to gastric glands in guinea pig.

Row | SMILES | IC50 [1] | IC50 [2] | IC50 [3]
1 | Cc1cccc(NC(=O)NC2CCc3ccccc3N(CC(=O)N3CCCC3)C2=O)c1 (configuration not stated) | 130 nM | – | –
2 | COc1cccc(NC(=O)N[C@H]2CCc3ccccc3N(CC(=O)N3CCCC3)C2=O)c1 | 335 nM | – | –
3 | CC(C)(C)OC(=O)CN1C(=O)C(NC(=O)c2ccc3ccccc3c2)CCc2ccccc21 (configuration not stated) | 7.5 nM | – | –
4 | Cc1cccc(NC(=O)NC2CCc3ccccc3N(CC(=O)OC(C)(C)C)C2=O)c1 (configuration not stated) | 140 nM | – | –
5 | Cc1cccc(NC(=O)N[C@H]2CCc3ccccc3N(CC(=O)N3CCCC3)C2=O)c1 | 1000 nM | – | –
6 | Cc1cccc(NC(=O)N[C@@H]2CCc3ccccc3N(CC(=O)N3CCCC3)C2=O)c1 | 30 nM | – | –
7 | COc1cccc(NC(=O)N[C@@H]2CCc3ccccc3N(CC(=O)N3CCCC3)C2=O)c1 | 28 nM | – | –
8 | CCOC(=O)CN1C(=O)C(NC(=O)Nc2ccc(Cl)cc2)N=C(c2ccccc2)c2ccccc21 (configuration not stated) | – | 1 nM | 3.3 nM
9 | COc1cccc(NC(=O)NC2CCc3ccccc3N(CC(=O)OC(C)(C)C)C2=O)c1 (configuration not stated) | 62 nM | – | –
10 | O=C(Nc1ccc(Cl)cc1)NC1N=C(c2ccccc2)c2ccccc2N(CC(=O)N2CCCC2)C1=O (configuration not stated) | – | 0.28 nM | 0.5 nM
